Common to all, as to experiment: relative viability (nuclei count vs DMSO), 5 days (fraction); higher = more cells survive
Compound in experiment [1]: C1/C(=C\C2=CC=CS2)/C(=O)/C(=C/C3=CC=CS3)/C1 + Nc1nc2[nH]cc(CCc3ccc(C(=O)N[C@@H](CCC(=O)O)C(=O)O)cc3)c2c(=O)[nH]1 [Pemetrexed] (partner 0.2 µM)
The procedure, abridged: (§1)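 Medians of duplicate plates are given as relative viability. That measure is the nuclei count in treated wells divided by the count in vehicle wells. Counts were taken on 4× images of lung cancer cell lines in 1536-well plates, 5 days after pin-tool dosing the day after seeding with one drug alone or a fixed anchor-drug dose plus five library-drug doses (not always all listed) in √10 steps.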

Compound in the experiment “Lestaurtinib + Alpelisib”: C[C@]12O[C@H](C[C@]1(O)CO)n1c3ccccc3c3c4c(c5c6ccccc6n2c5c31)CNC4=O [Lestaurtinib] + Cc1nc(NC(=O)N2CCC[C@H]2C(N)=O)sc1-c1ccnc(C(C)(C)C(F)(F)F)c1 [Alpelisib] (partner 2 µM)
The procedure, abridged: as §1

Compound in the experiment “TPCA-1 + Pictilisib”: C1=CC(=CC=C1C2=CC(=C(S2)NC(=O)N)C(=O)N)F [TPCA-1] + CS(=O)(=O)N1CCN(Cc2cc3nc(-c4cccc5[nH]ncc45)nc(N4CCOCC4)c3s2)CC1 [Pictilisib] (partner 1 µM)
Summed up: as §1

Compound in the experiment “TPCA-1 + Foretinib”: C1=CC(=CC=C1C2=CC(=C(S2)NC(=O)N)C(=O)N)F [TPCA-1] + COc1cc2c(Oc3ccc(NC(=O)C4(C(=O)Nc5ccc(F)cc5)CC4)cc3F)ccnc2cc1OCCCN1CCOCC1 [Foretinib] (partner 0.25 µM)
Summed up: as §1

NCI-H1437: the relative viability in experiment [1] (first compound 0.2 µM) turned out to be 0.286; in experiment [1] (first compound 0.6325 µM) it was 0.362; in experiment [1] (first compound 2 µM) it was 0.353; in experiment [1] (first compound 6.325 µM), 0.252; in experiment [1] (first compound 20 µM), 0.311; with Lestaurtinib + Alpelisib (first compound 0.005 µM), 0.958. Moreover, the relative viability came to 1.11 with Lestaurtinib + Alpelisib (first compound 0.01581 µM); 1.01 in the experiment with Lestaurtinib + Alpelisib (first compound 0.05 µM); 0.757 with Lestaurtinib + Alpelisib (first compound 0.1581 µM); 0.461 with Lestaurtinib + Alpelisib (first compound 0.5 µM); 0.508 in the experiment with TPCA-1 + Pictilisib (first compound 0.04 µM); 0.439 with TPCA-1 + Pictilisib (first compound 0.1265 µM). Besides, the relative viability with TPCA-1 + Pictilisib (first compound 0.4 µM) was 0.423; with TPCA-1 + Pictilisib (first compound 1.265 µM), 0.538; with TPCA-1 + Pictilisib (first compound 4 µM) it was 0.29; with TPCA-1 + Foretinib (first compound 0.04 µM), 1.31; with TPCA-1 + Foretinib (first compound 0.1265 µM) it was 1.4; in the experiment with TPCA-1 + Foretinib (first compound 0.4 µM), 1.25. In addition, the relative viability was 1.32 with TPCA-1 + Foretinib (first compound 1.265 µM) and 1.41 in the experiment with TPCA-1 + Foretinib (first compound 4 µM).
For the cell line NCI-H1563, the relative viability in experiment [1] (first compound 0.2 µM) was determined as 0.73; in experiment [1] (first compound 0.6325 µM) it was 0.801; in experiment [1] (first compound 2 µM) it was 0.912; in experiment [1] (first compound 6.325 µM), 0.798; in experiment [1] (first compound 20 µM), 0.763; with Lestaurtinib + Alpelisib (first compound 0.005 µM) it was 0.88. In addition, the relative viability with Lestaurtinib + Alpelisib (first compound 0.01581 µM) amounted to 0.954; with Lestaurtinib + Alpelisib (first compound 0.05 µM), 0.944; in the experiment with Lestaurtinib + Alpelisib (first compound 0.1581 µM) it was 0.865; with Lestaurtinib + Alpelisib (first compound 0.5 µM), 0.813; in the experiment with TPCA-1 + Pictilisib (first compound 0.04 µM), 0.671; with TPCA-1 + Pictilisib (first compound 0.1265 µM) it was 0.633. Also, the relative viability was 0.63 with TPCA-1 + Pictilisib (first compound 0.4 µM); 0.661 in the experiment with TPCA-1 + Pictilisib (first compound 1.265 µM); 0.611 in the experiment with TPCA-1 + Pictilisib (first compound 4 µM); 1.03 in the experiment with TPCA-1 + Foretinib (first compound 0.04 µM); 0.944 with TPCA-1 + Foretinib (first compound 0.1265 µM); 0.96 with TPCA-1 + Foretinib (first compound 0.4 µM). The relative viability was found to be 0.991 with TPCA-1 + Foretinib (first compound 1.265 µM) and 1.02 with TPCA-1 + Foretinib (first compound 4 µM).
Regarding NCI-H1651, the relative viability worked out at 0.582 in experiment [1] (first compound 0.2 µM); 0.666 in experiment [1] (first compound 0.6325 µM); 0.778 in experiment [1] (first compound 2 µM); 0.495 in experiment [1] (first compound 6.325 µM); 0.58 in experiment [1] (first compound 20 µM); 1.1 with Lestaurtinib + Alpelisib (first compound 0.005 µM). Further, the relative viability in the experiment with Lestaurtinib + Alpelisib (first compound 0.01581 µM) amounted to 0.889; with Lestaurtinib + Alpelisib (first compound 0.05 µM) it was 0.913; with Lestaurtinib + Alpelisib (first compound 0.1581 µM), 0.845; with Lestaurtinib + Alpelisib (first compound 0.5 µM), 0.529; in the experiment with TPCA-1 + Pictilisib (first compound 0.04 µM) it was 0.637; with TPCA-1 + Pictilisib (first compound 0.1265 µM) it was 0.487. The relative viability with TPCA-1 + Pictilisib (first compound 0.4 µM) is 0.561; with TPCA-1 + Pictilisib (first compound 1.265 µM), 0.657; with TPCA-1 + Pictilisib (first compound 4 µM) it was 0.436; with TPCA-1 + Foretinib (first compound 0.04 µM) it was 0.862; in the experiment with TPCA-1 + Foretinib (first compound 0.1265 µM), 0.656; in the experiment with TPCA-1 + Foretinib (first compound 0.4 µM), 0.801. Further, the relative viability with TPCA-1 + Foretinib (first compound 1.265 µM) amounted to 0.794; with TPCA-1 + Foretinib (first compound 4 µM) it was 0.735.
In the case of NCI-H1666, the relative viability in experiment [1] (first compound 0.2 µM) was determined as 0.82; in experiment [1] (first compound 0.6325 µM) it was 0.84; in experiment [1] (first compound 2 µM) it was 0.877; in experiment [1] (first compound 6.325 µM) it was 0.791; in experiment [1] (first compound 20 µM) it was 0.813; with Lestaurtinib + Alpelisib (first compound 0.005 µM) it was 0.915. The relative viability with Lestaurtinib + Alpelisib (first compound 0.01581 µM) came to 1.05; with Lestaurtinib + Alpelisib (first compound 0.05 µM), 1.02; in the experiment with Lestaurtinib + Alpelisib (first compound 0.1581 µM), 0.493; with Lestaurtinib + Alpelisib (first compound 0.5 µM), 0.442; with TPCA-1 + Pictilisib (first compound 0.04 µM), 0.419; with TPCA-1 + Pictilisib (first compound 0.1265 µM) it was 0.35. Besides, the relative viability with TPCA-1 + Pictilisib (first compound 0.4 µM) amounted to 0.412; with TPCA-1 + Pictilisib (first compound 1.265 µM), 0.561; with TPCA-1 + Pictilisib (first compound 4 µM) it was 0.404; with TPCA-1 + Foretinib (first compound 0.04 µM), 0.961; in the experiment with TPCA-1 + Foretinib (first compound 0.1265 µM), 0.942; with TPCA-1 + Foretinib (first compound 0.4 µM) it was 0.931. For the same cell line, the relative viability with TPCA-1 + Foretinib (first compound 1.265 µM) was 0.962; with TPCA-1 + Foretinib (first compound 4 µM), 0.997.
Regarding NCI-H1734, the relative viability in experiment [1] (first compound 0.2 µM) turned out to be 0.439; in experiment [1] (first compound 0.6325 µM) it was 0.433; in experiment [1] (first compound 2 µM), 0.457; in experiment [1] (first compound 6.325 µM) it was 0.37; in experiment [1] (first compound 20 µM), 0.426; with Lestaurtinib + Alpelisib (first compound 0.005 µM), 0.732. The relative viability is 0.689 in the experiment with Lestaurtinib + Alpelisib (first compound 0.01581 µM); 0.569 with Lestaurtinib + Alpelisib (first compound 0.05 µM); 0.377 in the experiment with Lestaurtinib + Alpelisib (first compound 0.1581 µM); 0.304 with Lestaurtinib + Alpelisib (first compound 0.5 µM); 0.53 with TPCA-1 + Pictilisib (first compound 0.04 µM); 0.353 with TPCA-1 + Pictilisib (first compound 0.1265 µM). In addition, the relative viability with TPCA-1 + Pictilisib (first compound 0.4 µM) turned out to be 0.447; with TPCA-1 + Pictilisib (first compound 1.265 µM) it was 0.518; with TPCA-1 + Pictilisib (first compound 4 µM), 0.264; in the experiment with TPCA-1 + Foretinib (first compound 0.04 µM), 0.897; with TPCA-1 + Foretinib (first compound 0.1265 µM), 0.742; with TPCA-1 + Foretinib (first compound 0.4 µM), 0.917. Besides, the relative viability came to 0.818 in the experiment with TPCA-1 + Foretinib (first compound 1.265 µM) and 0.732 with TPCA-1 + Foretinib (first compound 4 µM).
As for NCI-H1755, the relative viability in experiment [1] (first compound 0.2 µM) stood at 0.436; in experiment [1] (first compound 0.6325 µM), 0.413; in experiment [1] (first compound 2 µM), 0.484; in experiment [1] (first compound 6.325 µM) it was 0.369; in experiment [1] (first compound 20 µM), 0.387; with Lestaurtinib + Alpelisib (first compound 0.005 µM) it was 1. Besides, the relative viability was 0.927 in the experiment with Lestaurtinib + Alpelisib (first compound 0.01581 µM); 0.571 with Lestaurtinib + Alpelisib (first compound 0.05 µM); 0.349 with Lestaurtinib + Alpelisib (first compound 0.1581 µM); 0.202 in the experiment with Lestaurtinib + Alpelisib (first compound 0.5 µM); 0.406 in the experiment with TPCA-1 + Pictilisib (first compound 0.04 µM); 0.344 with TPCA-1 + Pictilisib (first compound 0.1265 µM). For the same cell line, the relative viability with TPCA-1 + Pictilisib (first compound 0.4 µM) was 0.426; with TPCA-1 + Pictilisib (first compound 1.265 µM) it was 0.209; in the experiment with TPCA-1 + Pictilisib (first compound 4 µM) it was 0.204; in the experiment with TPCA-1 + Foretinib (first compound 0.04 µM) it was 0.914; with TPCA-1 + Foretinib (first compound 0.1265 µM), 0.895; in the experiment with TPCA-1 + Foretinib (first compound 0.4 µM) it was 0.923. Besides, the values for the relative viability with TPCA-1 + Foretinib (first compound 1.265 µM) and in the experiment with TPCA-1 + Foretinib (first compound 4 µM) were 0.832 and 0.669, respectively.
With NCI-H1793, the relative viability in experiment [1] (first compound 0.2 µM) was 0.973; in experiment [1] (first compound 0.6325 µM), 0.711; in experiment [1] (first compound 2 µM), 1.03; in experiment [1] (first compound 6.325 µM), 0.796; in experiment [1] (first compound 20 µM), 0.914; with Lestaurtinib + Alpelisib (first compound 0.005 µM), 0.874. In addition, the relative viability was found to be 0.761 in the experiment with Lestaurtinib + Alpelisib (first compound 0.01581 µM); 0.588 with Lestaurtinib + Alpelisib (first compound 0.05 µM); 0.546 in the experiment with Lestaurtinib + Alpelisib (first compound 0.1581 µM); 0.494 with Lestaurtinib + Alpelisib (first compound 0.5 µM); 0.292 in the experiment with TPCA-1 + Pictilisib (first compound 0.04 µM); 0.381 in the experiment with TPCA-1 + Pictilisib (first compound 0.1265 µM). Also, the relative viability with TPCA-1 + Pictilisib (first compound 0.4 µM) amounted to 0.454; in the experiment with TPCA-1 + Pictilisib (first compound 1.265 µM), 0.245; with TPCA-1 + Pictilisib (first compound 4 µM), 0.28; with TPCA-1 + Foretinib (first compound 0.04 µM) it was 0.72; with TPCA-1 + Foretinib (first compound 0.4 µM) it was 0.647; with TPCA-1 + Foretinib (first compound 1.265 µM), 0.559. In addition, in the experiment with TPCA-1 + Foretinib (first compound 4 µM), the relative viability stood at 0.263.

The record behind these values is the supplement of paper PMC10307832.
